# Results as given in patent US20160081968A1, “COMPOSITION FOR USE IN REDUCING SCAB FORMATION AND PROMOTING HEALING” (BIOGLAN AB, priority 2013, published 2016).
# Test system: bacteria (e.g. S. aureus, B. subtilis, Pseud. aeuruginosa)
# Assay: Antimicrobial activity of glyceryl monolaurate
# Type: cell-based
# Excerpt: The compositions have an inbuilt antimicrobial system which gives less need for preservatives. The antimicrobial activity of the composition is partly due to the presence of hydrogen peroxide and partly due to the presence of glyceryl monolaurate. […] In combination with hydrogen peroxide, a synergistic effect is achieved and antimicrobial activity according to A criteria is obtained against also yeast (e.g. Candida albicans) and molds (Aspergillus niger). This was shown by performing a preservative effectiveness test according to the PhEur method. Acceptance criteria A is the most strict criteria according to PhEur. Criteria B is less strict.
compound,measurement,value
CCCCCCCCCCCC(=O)OCC(O)CO (stereo not shown) [Glyceryl monolaurate],antimicrobial activity against bacteria,antimicrobially active against bacteria
